Assay results as given in ChEMBL document CHEMBL1201862, “PubChem BioAssay data set” (2004).
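Exposure lasted 48 hours, with cells grown in 96-well plates and compounds tested at five concentrations. Here, GI50 denotes the concentration required for 50% inhibition of growth.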 The source made the active and inactive calls. Cut-off read from the data, not from the text of the source: active = GI50 up to about 1.1 µM and inactive = higher.

Experiments:
Assay in all cases: inhibition of tumour cell growth, NCI panel, 48 h
A498 = tested on: A498
A549 = tested on: A549
COLO 205 = tested on: COLO 205
HCT-116 = tested on: HCT-116
IGROV-1 = tested on: IGROV-1
KM12 = tested on: KM12
MDA-N = tested on: MDA-N
NCI-H460 = tested on: NCI-H460
NCI-H522 = tested on: NCI-H522
OVCAR-4 = tested on: OVCAR-4
PC-3 = tested on: PC-3
RXF 393 = tested on: RXF 393
SK-MEL-28 = tested on: SK-MEL-28
SK-OV-3 = tested on: SK-OV-3
SW-620 = tested on: SW-620
UACC-257 = tested on: UACC-257
HCC 2998 = tested on: HCC 2998
HOP-62 = tested on: HOP-62
NCI/ADR-RES = tested on: NCI/ADR-RES
RPMI-8226 = tested on: RPMI-8226

Measured: GI50

CCn1nc(C)c2c1C(=O)NCC(=O)N2
inactive: A498 > 100 µM | A549 > 100 µM | COLO 205 > 100 µM | HCT-116 > 100 µM | IGROV-1 > 100 µM | KM12 > 100 µM | MDA-N > 100 µM | NCI-H460 > 100 µM | NCI-H522 > 100 µM | OVCAR-4 > 100 µM | PC-3 > 100 µM | RXF 393 > 100 µM | SK-MEL-28 > 100 µM | SK-OV-3 > 100 µM | SW-620 > 100 µM | UACC-257 > 100 µM

O=C(c1ccccc1O)c1cc(-c2ncc3c(=O)c4ccccc4oc3n2)c(-c2ccccc2O)[nH]c1=O
inactive: A498 21.3 µM | A549 25.5 µM | COLO 205 31.9 µM | HCC 2998 17 µM | HCT-116 20.7 µM | HOP-62 18.5 µM | IGROV-1 26.9 µM | KM12 30 µM | NCI-H460 23.3 µM | NCI-H522 25.2 µM | NCI/ADR-RES 31.7 µM | OVCAR-4 22.5 µM | RPMI-8226 20.1 µM | RXF 393 23.4 µM | SK-MEL-28 23.6 µM | SK-OV-3 25.9 µM | SW-620 19.2 µM | UACC-257 18.9 µM

CCCC(C(=O)Nc1cccc2nc[nH]c12)C(=O)OCC (stereo not given)
inactive: A498 > 100 µM | A549 > 100 µM | HCC 2998 > 100 µM | HCT-116 > 100 µM | HOP-62 > 100 µM | IGROV-1 > 100 µM | KM12 > 100 µM | NCI-H460 > 100 µM | NCI-H522 44.1 µM | NCI/ADR-RES 79.1 µM | OVCAR-4 > 100 µM | PC-3 > 100 µM | RPMI-8226 > 100 µM | SK-MEL-28 > 100 µM | SK-OV-3 > 100 µM | SW-620 > 100 µM | UACC-257 > 100 µM

COC(=O)C(C/C=C(\C)c1ccccc1)C(C)=O (stereo not given)
inactive: A498 > 100 µM | A549 53.1 µM | COLO 205 > 81.8 µM | HCC 2998 > 100 µM | HCT-116 57.1 µM | HOP-62 > 100 µM | IGROV-1 > 100 µM | KM12 58.2 µM | NCI-H460 85.3 µM | NCI-H522 76.7 µM | NCI/ADR-RES 54.6 µM | OVCAR-4 56 µM | RPMI-8226 27.2 µM | RXF 393 > 100 µM | SK-MEL-28 > 100 µM | SK-OV-3 > 100 µM | SW-620 > 100 µM | UACC-257 > 48.3 µM

Cc1ccc(NC(=O)C2C(=O)N(c3ccc(C)c(C)c3)C(=O)/C2=N\NC(N)=O)cc1C (stereo not given)
inactive: A498 > 100 µM | A549 52.8 µM | COLO 205 > 100 µM | HCC 2998 > 100 µM | HCT-116 85.3 µM | HOP-62 > 100 µM | IGROV-1 89.5 µM | KM12 > 100 µM | NCI-H460 > 100 µM | NCI-H522 55.1 µM | OVCAR-4 > 100 µM | RPMI-8226 69.2 µM | RXF 393 > 100 µM | SK-MEL-28 > 100 µM | SK-OV-3 > 100 µM | SW-620 > 100 µM | UACC-257 > 100 µM

COC(=O)CC(=O)OSc1ccccc1
inactive: A498 17.3 µM | A549 12.5 µM | COLO 205 19.5 µM | HCC 2998 28.1 µM | HCT-116 12.9 µM | HOP-62 22.4 µM | IGROV-1 7.71 µM | KM12 25.5 µM | NCI-H460 38.5 µM | NCI-H522 1.61 µM | OVCAR-4 28.6 µM | RPMI-8226 15.7 µM | RXF 393 10.4 µM | SK-OV-3 21.1 µM | SW-620 18.1 µM | UACC-257 25.4 µM

O=c1c2cc([N+](=O)[O-])ccc2sc2ccsc12
inactive: A498 > 100 µM | A549 > 100 µM | COLO 205 > 100 µM | HCC 2998 > 100 µM | HCT-116 > 100 µM | HOP-62 > 100 µM | IGROV-1 > 100 µM | KM12 > 100 µM | NCI-H460 > 100 µM | NCI-H522 > 100 µM | OVCAR-4 > 100 µM | RPMI-8226 > 100 µM | RXF 393 > 100 µM | SK-MEL-28 > 100 µM | SK-OV-3 > 100 µM | SW-620 > 100 µM | UACC-257 > 100 µM

COC(=O)[C@]1(c2ccc(N(C)C)cc2OC)C[C@@H]2CCCN(CCc3c1[nH]c1ccccc31)C2
inactive: A498 19 µM | A549 34.4 µM | COLO 205 13.8 µM | HCC 2998 15.3 µM | HCT-116 29.9 µM | HOP-62 30.3 µM | IGROV-1 20.2 µM | KM12 23.1 µM | NCI-H460 16.7 µM | NCI-H522 17.4 µM | NCI/ADR-RES 18.8 µM | OVCAR-4 13.3 µM | RPMI-8226 28.1 µM | RXF 393 19.8 µM | SK-MEL-28 19.6 µM | SK-OV-3 > 47 µM | SW-620 40.3 µM | UACC-257 21 µM

C=CCN1C(=O)/C(=C/c2ccco2)N=C1SC1OC(COC(C)=O)C(OC(C)=O)C(OC(C)=O)C1OC(C)=O (stereo not given)
inactive: A498 > 100 µM | COLO 205 > 100 µM | HCC 2998 > 100 µM | HOP-62 > 100 µM | IGROV-1 > 100 µM | KM12 > 100 µM | NCI-H460 > 100 µM | NCI-H522 15.9 µM | NCI/ADR-RES > 100 µM | OVCAR-4 > 100 µM | PC-3 > 100 µM | RPMI-8226 31.6 µM | RXF 393 44 µM | SK-MEL-28 > 100 µM | SK-OV-3 > 100 µM | SW-620 > 100 µM | UACC-257 > 100 µM

CC[C@@]12CCC(=S)N(CCSc3ccccc3)[C@@H]1c1c(n(S(=O)(=O)c3ccc(OC)cc3)c3ccccc13)CC2
inactive: A498 > 100 µM | A549 > 100 µM | COLO 205 > 100 µM | HCT-116 > 100 µM | HOP-62 > 100 µM | IGROV-1 > 100 µM | KM12 > 100 µM | NCI-H460 > 100 µM | NCI-H522 > 100 µM | NCI/ADR-RES > 100 µM | PC-3 > 100 µM | RPMI-8226 > 100 µM | RXF 393 24.1 µM | SK-MEL-28 > 100 µM | SK-OV-3 > 100 µM | SW-620 > 100 µM | UACC-257 > 100 µM

O=C1OC(c2ccco2)=N/C1=C\c1ccc(Cl)c(Cl)c1
inactive: A498 > 100 µM | A549 62.1 µM | COLO 205 > 100 µM | HCC 2998 70.8 µM | HCT-116 72.8 µM | HOP-62 27.4 µM | IGROV-1 > 100 µM | KM12 > 100 µM | MDA-N > 100 µM | NCI-H460 88.7 µM | NCI-H522 51.4 µM | OVCAR-4 85.1 µM | PC-3 > 100 µM | RPMI-8226 > 100 µM | RXF 393 22 µM | SK-MEL-28 > 100 µM | SK-OV-3 47.2 µM | SW-620 > 100 µM | UACC-257 > 100 µM
